Measured values taken from patent publication US12522597B2, “Methods and compositions for modulating splicing” (Skyhawk Therapeutics, Inc., priority 2019, dated 2026).

What was measured:
[1] = tested on: MDR1-MDCK cell monolayers; experiment: MDCK-MDR1 permeability assay (BBB penetration potential); format: in vitro ADME; details: dog, MDCK-MDR1, 120 min, 5 μM, pH 7.4
Procedure: (§1) Each determination is performed in duplicate. […] Analytical conditions are outlined below.

[2] = tested on: MDR1; experiment: as above; format: in vitro ADME; details: dog; for efflux ratio at 120 min, 5 μM: MDCK-MDR1, pH 7.4, MDCK-MDR1: Efflux; for Papp A→B at 120 min, 5 μM: MDCK-MDR1, pH 7.4, MDCK-MDR1: Papp A-B; for Papp B→A at 120 min, 5 μM: MDCK-MDR1, pH 7.4, MDCK-MDR1: Papp B-A
Procedure: as §1

[3] = tested on: mHTT protein; experiment: mHTT protein assay (2B7-MW1, Mesoscale Discovery); format: cell-based, human; details: GM04724 (CAG 70/20) Huntington's disease patient lymphoblast cells, 48 hours, 2B7-MW1 MSD; read-out: HTT Potency - Protein EC50 mHTT (average)
Procedure: Compounds are tested on GM04724 (CAG 70/20) Huntington's disease patient lymphoblast cells at doses ranging from 10 μM to 0.6 nM. 4,500 cells/well are seeded in 384 well plates. One plate replica is carried out for parallel viability testing by CellTiter Glo (CTG). Compounds are incubated for 48 hours, mHTT protein levels are assessed by the 2B7-MW1 assay via Mesoscale Discovery (MSD) as previously reported (Macdonald et al., 2014). The antibody pair is comprised of previously characterized monoclonals (2B7 and MW1) interrogating two regions for HTT conformation and biological properties: the N17 domain and the polyQ domain (Baldo et al., 2012; Ko et., 2001). 2B7-MW1 is dependent on subject/animal specific levels of HTT at the time of treatment. 2B7-MW1 is dependent on polyQ expansion (e.g., the higher the expansion the higher the signal) and on mHTT size (e.g., a similar polyQ will give higher signal with smaller HTT size). The viability readout is carried out by CTG according to the manufacturer's instructions.

SMILES | MDCK-MDR1: % Recov A-B [1] [%] | MDCK-MDR1: % Recov B-A [1] [%] | efflux ratio at 120 min, 5 μM [2] | Papp A→B at 120 min, 5 μM [2] [×10⁻⁶ cm/s] | Papp B→A at 120 min, 5 μM [2] [×10⁻⁶ cm/s] | EC50 [3] [nM] | MDCK-MDR1: Efflux [1] | MDCK-MDR1: Papp A-B [1] | MDCK-MDR1: Papp B-A [1]
Oc1cc2ncccc2cc1-c1ccc(O[C@@H]2C[C@H]3CCC[C@H](N3)[C@@H]2F)nn1 (single isomer, unassigned) [103-ENT1] | 95 | 101 | 16 | 3.92 | 61.5 | 501 to 10000 |  |  | 
Cc1ccc(-c2ccc(-c3ccc(O[C@@H]4C[C@H]5CCC[C@H](N5)[C@@H]4F)nn3)c(O)c2)cn1 (single isomer, unassigned) [67-ENT1] | 44 | 62 | 7 | 4.42 | 29.8 | 101 to 500 |  |  | 
Oc1cc(-n2ccnn2)ccc1-c1ccc(O[C@H]2C[C@@H]3CCC[C@@H](N3)[C@H]2F)nn1 (single isomer, unassigned) [69-ENT2] | 86 | 93 | 5 | 10.7 | 55.9 | 101 to 500 |  |  | 
Oc1cc(-n2ccnc2)ccc1-c1ccc(O[C@H]2C[C@@H]3CC(F)(F)[C@H](C2)N3)nn1 (single isomer, unassigned) [51-ENT2] | 86 | 90 | 2 | 25.8 | 46.7 | 501 to 10000 |  |  | 
Cc1ccc(-c2ccc(-c3ccc(O[C@H]4C[C@@H]5CCC[C@@H](N5)[C@H]4F)nn3)c(O)c2)cn1 (single isomer, unassigned) [67-ENT2] | 59 | 76 | 6 | 3.34 | 20.7 | 101 to 500 |  |  | 
Oc1cc(-c2nnco2)c(F)cc1-c1ccc(O[C@@H]2C[C@H]3CCC[C@H](N3)[C@@H]2F)nn1 (single isomer, unassigned) [143-ENT2] | 81 | 87 | 8 | 6.91 | 54.8 | 51 to 100 |  |  | 
Oc1cc(-c2ccn3cnnc3c2)ccc1-c1ccc(O[C@@H]2C[C@H]3CCC[C@H](N3)[C@@H]2F)nn1 (single isomer, unassigned) [86-ENT1] | 89 | 93 | 46 | 0.54 | 24.7 | 101 to 500 |  |  | 
Cc1cc(-c2ccc(-c3ccc(O[C@@H]4C[C@H]5CCC[C@H](N5)[C@@H]4F)nn3)c(O)c2)co1 (single isomer, unassigned) [98-ENT1] | 9 | 47 | 1 | 1.13 | 1.39 | 101 to 500 |  |  | 
CN(C)C(=O)c1cc2cc(O)c(-c3ccc(O[C@@H]4C[C@@]5(C)CCC[C@](C)(N5)[C@@H]4F)nn3)cc2o1 (single isomer, unassigned) [155-ENT1] | 90 | 95 | 16 | 3.71 | 59.4 | 501 to 10000 |  |  | 
CN(C)C(=O)c1cc2cc(O)c(-c3ccc(O[C@H]4C[C@]5(C)CCC[C@@](C)(N5)[C@H]4F)nn3)cc2o1 (single isomer, unassigned) [155-ENT2] | 102 | 102 | 17 | 3.84 | 63.7 | 501 to 10000 |  |  | 
Cc1nc(-c2ccc(-c3ccc(O[C@H]4C[C@@H]5CCC[C@@H](N5)[C@H]4F)nn3)c(O)c2)co1 (single isomer, unassigned) [92-ENT2] | 72 | 89 | 9 | 6.04 | 54.6 | 101 to 500 |  |  | 
Cn1ccc(=O)c2cc(O)c(-c3ccc(O[C@H]4C[C@]5(C)CCC[C@@](C)(N5)[C@H]4F)nn3)cc21 (single isomer, unassigned) [132-ENT1] | 90 | 95 | 142 | 0.1 | 14.7 | 101 to 500 |  |  | 
Oc1cc(-c2nncs2)ccc1-c1ccc(O[C@@H]2C[C@H]3CCC[C@H](N3)[C@@H]2F)nn1 (single isomer, unassigned) [116-ENT1] | 88 | 91 | 8 | 7.76 | 59.2 | 16 to 50 |  |  | 
Oc1cc(-n2ncc3ccccc32)ccc1-c1ccc(O[C@@H]2C[C@H]3CC[C@H](N3)[C@@H]2F)nn1 (single isomer, unassigned) [114-ENT1] | 22 | 47 | 3 | 4.74 | 13.5 | 501 to 10000 |  |  | 
Cn1cc(-c2ccc(-c3ccc(O[C@@H]4C[C@@H]5CCC[C@@H](N5)[C@@H]4F)nn3)c(O)c2)cn1 (single isomer, unassigned) [122-ENT2] | 60 | 76 | 6 | 6.08 | 38.4 | 501 to 10000 |  |  | 
Cn1cnc(-c2ccc(-c3ccc(O[C@@H]4C[C@H]5CCC[C@H](N5)[C@@H]4F)nn3)c(O)c2)cc1=O (single isomer, unassigned) [138-ENT1] | 86 | 98 | 47 | 1.14 | 53.9 | 51 to 100 |  |  | 
Oc1cc(-n2ccnc2)ccc1-c1ccc(O[C@@H]2C[C@H]3CC(F)(F)[C@@H](C2)N3)nn1 (single isomer, unassigned) [51-ENT1] | 90 | 99 | 2 | 32.2 | 51.5 | 501 to 10000 |  |  | 
Oc1cc(-n2ccnc2)ccc1-c1ccc(O[C@@H]2C[C@H]3CC[C@H](N3)[C@@H]2F)nn1 (single isomer, unassigned) [36-ENT1] | 74 | 83 | 5 | 5.28 | 26 | 51 to 100 |  |  | 
Cn1cnc(-c2ccc(-c3ccc(O[C@H]4C[C@@H]5CCC[C@@H](N5)[C@H]4F)nn3)c(O)c2)cc1=O (single isomer, unassigned) [138-ENT2] | 92 | 91 | 32 | 1.88 | 60.7 | 101 to 500 |  |  | 
Oc1cc(-n2ncc3ccccc32)ccc1-c1ccc(O[C@H]2C[C@@H]3CC[C@@H](N3)[C@H]2F)nn1 (single isomer, unassigned) [114-ENT2] | 18 | 42 | 4 | 3.86 | 15.1 | 501 to 10000 |  |  | 
Cc1cncc(-c2ccc(-c3ccc(O[C@@H]4C[C@H]5CCC[C@H](N5)[C@@H]4F)nn3)c(O)c2)n1 (single isomer, unassigned) [102-ENT1] | 89 | 90 | 6 | 7.66 | 43.1 | 101 to 500 |  |  | 
Cn1cc(-c2ccc(-c3ccc(O[C@@H]4C[C@H]5COC[C@H](N5)[C@@H]4F)nn3)c(O)c2)cn1 (single isomer, unassigned) [124-ENT1] | 82 | 88 | 3 | 17.5 | 51.5 | 501 to 10000 |  |  | 
Oc1cc(-c2cn[nH]c2)ccc1-c1ccc(O[C@H]2C[C@@H]3COC[C@@H](N3)[C@H]2F)nn1 (single isomer, unassigned) [123-ENT2] | 87 | 93 | 10 | 7.03 | 69.8 | 101 to 500 |  |  | 
Cn1ccc(-c2ccc(-c3ccc(O[C@H]4C[C@@H]5CCC[C@@H](N5)[C@H]4F)nn3)c(O)c2)nc1=O (single isomer, unassigned) [107-ENT2] | 97 | 103 | 100 | 0.11 | 11.2 | 101 to 500 |  |  | 
Cc1nocc1-c1ccc(-c2ccc(O[C@H]3C[C@@H]4CCC[C@@H](N4)[C@H]3F)nn2)c(O)c1 (single isomer, unassigned) [72-ENT1] | 74 | 93 |  |  |  | 101 to 500 | 9 | 5.74 10^−6, cm/s | 51 10^−6, cm/s
